Measurements reported in patent US11596622B2, “Mazindol treatment for heroin dependence and substance use disorder” (NLS Pharmaceutics AG, priority 2017, dated 2023).

How the values were obtained:
μ (MOP) (h) = target: T1, μ (MOP) (h) (Homo sapiens, UniProt P35372); assay: Radioligand binding, μ opioid receptor (Eurofins CEREP)
T1 construct: Eurofins CEREP
Source text: (§1) Table A discloses mazindol and Met tested at […] and the compound binding calculated as a percent inhibition of the binding of a radioactively labeled ligand specific for each target (Eurofins CEREP, France).
(§2) An inhibition or stimulation of more than 50% is considered a significant effect of the test compounds. Fifty percent is a common cut-off for further investigation (i.e. determination of IC50 or EC50 values from concentration-response curves). Tables B and C display the binding profiles for Mazindol and Met.
(§3) The results are expressed as a percent of control specific binding obtained in the presence of the test compounds:
(§4) [formula] and as a percent inhibition of control specific binding obtained in the presence of the test compounds: […]

C57BL/6J mice = assay: Effect of treatment on the conditioned place preference induced by heroin; format: in vivo; settings: for Distance travelled in the drug-paired compartment / Distance travelled in the two compartments (Drug + Vehicle) / Distance travelled in the vehicle-paired compartment / Distance travelled, drug-paired minus vehicle-paired compartment / Time spent in the drug-paired compartment / Time spent in the vehicle-paired compartment / Time spent, drug-paired minus vehicle-paired compartment: mean
Source text: Conditioned place preference (CPP) is a widely used procedure for studying the potential addictive effect of drugs. CPP is based upon the tendency of rodents to approach a stimulus that has previously been paired with an incentive state induced by a drug. A drug that induces a CPP may be suspected to present reinforcing effects that could lead to addiction. Numerous addictive drugs, such as opiate agonists or stimulants induce a CPP and a behavioral sensitization.
The effect of mazindol on place preference was examined in C57BL/6J mice using a method similar to the one used by Schlussman et al. (9).
The third experiments consisted in examining the effects of mazindol and D-amphetamine (at doses chosen from results of the first part of the study) on the place preference induced by heroin at a dose chosen from results of the second experiment, which was 1.25 mg/kg. Mazindol (0.125, 0.25 and 0.5 mg/kg) and D-amphetamine (0.5 mg/kg) were tested.
Therefore, it was decided to perform an additional experiment to examine the effects on place preference induced by heroin of mazindol at 1 and 2 mg/kg and of D-amphetamine at 1 mg/kg.
(§5) Following the habituation session (on day 1), animals (N=72) were pseudo-randomly assigned to two groups, a Control group (N=12) and a Heroin group (N=60), in a way that there was no significant difference between the two groups for the total distance travelled in the apparatus and for the percentage of time spent and the percentage distance travelled in the grey compartment and in the striped compartment.
Animals received the following treatments immediately before drug sessions: • Control group: vehicle • Heroin group: heroin (1.25 mg/kg)
(§6) Following the last conditioning session, the Heroin group was pseudo-randomly divided into 5 groups (N=12/group) in a way that there was no significant difference between groups for the total distance travelled in the apparatus and for the percentage of time spent and the percentage distance travelled in the grey compartment and in the striped compartment in habituation session, for the distance travelled in the drug-paired and in the vehicle-paired compartments in conditioning sessions and for the proportion of striped drug-paired compartments.
Animals received the following treatments before preference session: • Control group: vehicle of mazindol, i.p. 60 min before testing. • Hero group: vehicle of mazindol, i.p. 60 min before testing. • Hero-A 0.5 group: D-amphetamine (0.5 mg/kg), i.p. 30 min before testing. • Hero-Mz 0.125 group: mazindol (0.125 mg/kg), i.p. 60 min before testing. • Hero-Mz 0.25 group: mazindol (0.25 mg/kg), i.p. 60 min before testing. • Hero-Mz 0.5 group: mazindol (0.5 mg/kg), i.p. 60 min before testing.
as §5, with “three” for “two”, “(N=12),” for “(N=12) and”, “(N=48) and a Mazindol group (N=12),” for “(N=60),”
Animals received the following treatments before drug sessions: • Control group: vehicle, i.p. immediately before session. • Heroin group: heroin (1.25 mg/kg), i.p. immediately before session. • MAZ 2 group: mazindol (2 mg/kg), i.p. 60 min before session.
as §6, with “into 4” for “into 5”, “there is” for “there was”, “compartments. […]” for “compartments.”

[1] = target: T2, Norepinephrine transporter (h) (Homo sapiens, UniProt P23975); assay: Radioligand binding, norepinephrine transporter (Eurofins CEREP); settings: 1.0 × 10^−05 M; antagonist radioligand; read-out: percent inhibition of the binding of a radioactively labeled ligand
T2 construct: Eurofins CEREP
Source text: as §1, §2, §3, §4

[2] = Hero-Mz 0.125: heroin 1.25 mg/kg conditioning, mazindol 0.125 mg/kg i.p. 60 min before preference session
[3] = Hero-Mz 0.25: heroin 1.25 mg/kg conditioning, mazindol 0.25 mg/kg i.p. 60 min before preference session
[4] = Hero-Mz 0.5: heroin 1.25 mg/kg conditioning, mazindol 0.5 mg/kg i.p. 60 min before preference session
[5] = Hero-Mz 1: heroin 1.25 mg/kg conditioning, mazindol 1 mg/kg i.p. 60 min before preference session
[6] = Hero-Mz 2: heroin 1.25 mg/kg conditioning, mazindol 2 mg/kg i.p. 60 min before preference session

T1 sequence (P35372 whole entry): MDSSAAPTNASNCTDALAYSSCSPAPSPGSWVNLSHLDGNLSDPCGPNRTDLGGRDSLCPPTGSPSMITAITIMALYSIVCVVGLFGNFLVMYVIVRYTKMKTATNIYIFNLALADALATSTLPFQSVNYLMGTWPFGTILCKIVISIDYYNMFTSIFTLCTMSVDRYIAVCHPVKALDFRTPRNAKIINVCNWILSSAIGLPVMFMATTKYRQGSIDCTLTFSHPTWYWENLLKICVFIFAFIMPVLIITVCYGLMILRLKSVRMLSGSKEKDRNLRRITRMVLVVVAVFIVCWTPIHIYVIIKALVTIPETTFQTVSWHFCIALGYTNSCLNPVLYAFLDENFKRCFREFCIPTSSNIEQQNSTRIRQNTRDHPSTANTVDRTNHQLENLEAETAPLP
T2 sequence (P23975 whole entry): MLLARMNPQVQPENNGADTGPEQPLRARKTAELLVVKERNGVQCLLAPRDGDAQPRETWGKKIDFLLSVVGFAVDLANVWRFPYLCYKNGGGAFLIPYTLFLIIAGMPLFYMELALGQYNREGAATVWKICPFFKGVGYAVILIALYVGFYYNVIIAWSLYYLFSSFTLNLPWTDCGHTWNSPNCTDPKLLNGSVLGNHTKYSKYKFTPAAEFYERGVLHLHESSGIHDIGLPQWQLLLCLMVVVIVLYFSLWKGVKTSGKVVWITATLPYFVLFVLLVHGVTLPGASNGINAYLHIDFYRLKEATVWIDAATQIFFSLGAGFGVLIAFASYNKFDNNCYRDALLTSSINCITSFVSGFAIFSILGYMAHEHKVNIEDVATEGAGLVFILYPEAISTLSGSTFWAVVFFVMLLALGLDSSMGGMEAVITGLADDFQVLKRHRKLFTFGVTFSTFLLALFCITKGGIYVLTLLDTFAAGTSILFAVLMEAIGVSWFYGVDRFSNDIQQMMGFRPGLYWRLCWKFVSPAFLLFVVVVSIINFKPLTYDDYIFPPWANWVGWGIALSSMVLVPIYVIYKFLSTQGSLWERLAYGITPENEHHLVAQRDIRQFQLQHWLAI

With OC1(c2ccc(Cl)cc2)c2ccccc2C2=NCCN21 (stereo not shown) [Mazindol, 5-(4-chlorophenyl)-2,5-dihydro-3 H-imadazo[2,1-a]isoindol-5-ol] the inhibition at 10 µM (μ (MOP) (h); 1.0 × 10^−05 M, agonist radioligand, read-out: percent inhibition of the binding of a radioactively labeled ligand) was 89.9%, the “affinity for μ-opioid receptors” value (μ (MOP) (h); compared with amphetamines) was “higher affinity” and the “Distance travelled in the drug-paired compartment” value (C57BL/6J mice; [2]) was 5623.8 cm. For the same compound, the “Distance travelled in the two compartments (Drug + Vehicle)” value (“Distance travelled … (Drug + Vehicle)” below) (C57BL/6J mice; [2]) was 9800.4 cm, the “Distance travelled in the vehicle-paired compartment” value (C57BL/6J mice; [2]) was 4176.5 cm and the “Distance travelled, drug-paired minus vehicle-paired compartment” value (C57BL/6J mice; [2]) was 1447.3 cm. The “Time spent in the drug-paired compartment” value (C57BL/6J mice; [2]) was 1105.7 s, the “Time spent in the vehicle-paired compartment” value (C57BL/6J mice; [2]) was 694.3 s and the “Time spent, drug-paired minus vehicle-paired compartment” value (C57BL/6J mice; [2]) was 411.3 s. For the same compound, the “Distance travelled in the drug-paired compartment” value (C57BL/6J mice; [3]) was 5092.1 cm, the “Distance travelled … (Drug + Vehicle)” value (C57BL/6J mice; [3]) was 9390.5 cm and the “Distance travelled in the vehicle-paired compartment” value (C57BL/6J mice; [3]) was 4298.4 cm. The “Distance travelled, drug-paired minus vehicle-paired compartment” value (C57BL/6J mice; [3]) was 793.8 cm, the “Time spent in the drug-paired compartment” value (C57BL/6J mice; [3]) was 933.9 s and the “Time spent in the vehicle-paired compartment” value (C57BL/6J mice; [3]) was 866.1 s. For the same compound, the “Time spent, drug-paired minus vehicle-paired compartment” value (C57BL/6J mice; [3]) was 67.8 s, the “Distance travelled in the drug-paired compartment” value (C57BL/6J mice; [4]) was 4411.7 cm and the “Distance travelled … (Drug + Vehicle)” value (C57BL/6J mice; [4]) was 8164.5 cm. The “Distance travelled in the vehicle-paired compartment” value (C57BL/6J mice; [4]) was 3752.8 cm, the “Distance travelled, drug-paired minus vehicle-paired compartment” value (C57BL/6J mice; [4]) was 659.0 cm and the “Time spent in the drug-paired compartment” value (C57BL/6J mice; [4]) was 965.1 s. For the same compound, the “Time spent in the vehicle-paired compartment” value (C57BL/6J mice; [4]) was 834.9 s, the “Time spent, drug-paired minus vehicle-paired compartment” value (C57BL/6J mice; [4]) was 130.1 s and the “Distance travelled in the drug-paired compartment” value (C57BL/6J mice; [5]) was 5464.5 cm. For the same compound, the “Distance travelled … (Drug + Vehicle)” value (C57BL/6J mice; [5]) was 9746.4 cm, the “Distance travelled in the vehicle-paired compartment” value (C57BL/6J mice; [5]) was 4281.9 cm and the “Distance travelled, drug-paired minus vehicle-paired compartment” value (C57BL/6J mice; [5]) was 1182.6 cm. For the same compound, the “Time spent in the drug-paired compartment” value (C57BL/6J mice; [5]) was 1086.0 s, the “Time spent in the vehicle-paired compartment” value (C57BL/6J mice; [5]) was 714.0 s and the “Time spent, drug-paired minus vehicle-paired compartment” value (C57BL/6J mice; [5]) was 372.0 s. The “Distance travelled in the drug-paired compartment” value (C57BL/6J mice; [6]) was 7038.9 cm, the “Distance travelled … (Drug + Vehicle)” value (C57BL/6J mice; [6]) was 12086.8 cm and the “Distance travelled in the vehicle-paired compartment” value (C57BL/6J mice; [6]) was 5047.9 cm. For the same compound, the “Distance travelled, drug-paired minus vehicle-paired compartment” value (C57BL/6J mice; [6]) was 1990.9 cm, the “Time spent in the drug-paired compartment” value (C57BL/6J mice; [6]) was 1089.7 s and the “Time spent in the vehicle-paired compartment” value (C57BL/6J mice; [6]) was 710.3 s. The “Time spent, drug-paired minus vehicle-paired compartment” value (C57BL/6J mice; [6]) was 379.3 s, the “effect on the heroin-induced increases of distance travelled and of time spent in the drug-paired compartment” value (C57BL/6J mice; mazindol 0.125 mg) was “had no significant effect” and the “effect on the heroin-induced increase of time spent in the drug-paired compartment” value (C57BL/6J mice; mazindol 0.25 mg/kg) was “Tended to reduce”. The “effect on the heroin-induced increase of the difference of distance travelled in the drug-paired vs. vehicle-paired compartment” value (C57BL/6J mice; mazindol 0.25 mg/kg, effect partial) was “Significantly reduced”, the “effect on the heroin-induced increase of the difference of distance travelled in the drug-paired vs. vehicle-paired compartment” value (C57BL/6J mice; mazindol 0.5 mg/kg) was “Significantly antagonized” and the “effect on the heroin-induced increase of time spent in the drug-paired compartment” value (C57BL/6J mice; mazindol 0.5 mg/kg) was “Tended to reduce”. The “effect on the heroin-induced increase of the difference of distance travelled in the drug-paired vs. vehicle-paired compartment” value (C57BL/6J mice; mazindol 1 mg/kg) was “Did not significantly reduce”, the “effect on the heroin-induced increase of time spent in the drug-paired compartment” value (C57BL/6J mice; mazindol 1 mg/kg) was “Did not significantly modify” and the “effect on the heroin-induced increases of distance travelled and of time spent in the drug-paired compartment” value (C57BL/6J mice; mazindol 2 mg) was “had no significant effect”. For the same compound, the “effect on the place preference induced by heroin” value (C57BL/6J mice; mazindol 0.125, 1 and 2 mg/kg i.p. before preference session) was “did not induce effects suggesting a decrease of the place preference induced by heroin”, the “locomotor activity (total distance travelled, FIG. 3)” value (C57BL/6J mice; mazindol 0.125-2 mg/kg i.p. before preference session) was “decreased locomotor activity at all doses tested except 2 mg/kg” and the “effect on the place preference induced by heroin” value (C57BL/6J mice; mazindol 0.25, 0.5 mg/kg i.p. before preference session) was “decreased the place preference induced by heroin”. It also gave an inhibition at 10 µM [1] of 100%.
